The values that follow come from patent US9169254B2, “Spiroimidazolone derivative” (Chugai Seiyaku Kabushiki Kaisha, priority 2009, dated 2015).

The first assay has as its target T1, human PTH1 receptor (Homo sapiens, UniProt Q03431).
T1 sequence (Q03431 27-593): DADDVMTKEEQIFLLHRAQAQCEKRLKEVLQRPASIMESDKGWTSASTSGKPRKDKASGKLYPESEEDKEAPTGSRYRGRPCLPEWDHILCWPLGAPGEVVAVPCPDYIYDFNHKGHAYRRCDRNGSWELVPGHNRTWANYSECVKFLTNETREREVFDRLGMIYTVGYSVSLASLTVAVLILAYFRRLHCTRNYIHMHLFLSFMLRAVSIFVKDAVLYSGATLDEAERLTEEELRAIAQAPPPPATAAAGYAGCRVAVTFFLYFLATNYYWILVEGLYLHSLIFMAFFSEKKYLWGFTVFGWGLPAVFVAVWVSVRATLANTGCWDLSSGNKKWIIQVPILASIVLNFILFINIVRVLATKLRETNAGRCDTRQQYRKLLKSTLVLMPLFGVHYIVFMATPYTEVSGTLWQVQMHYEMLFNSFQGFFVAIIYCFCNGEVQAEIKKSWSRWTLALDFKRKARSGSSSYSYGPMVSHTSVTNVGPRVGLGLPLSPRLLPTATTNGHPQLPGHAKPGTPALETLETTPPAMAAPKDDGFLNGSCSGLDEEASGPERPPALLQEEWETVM
Briefly: In vitro cAMP signal activity in HKRK-B7 cells (LLC-PK1 cells overexpressing the human PTH1 receptor). It counts as cell-based. Conditions: HKRK-B7 cells; compound at 1×10^−3 M; […]; 0.1 µM.
Consider `Cc1cc(N(C)c2nccs2)cc(C)c1CCS(=O)(=O)N1CCC2(CC1)N=C([C@H]1CC[C@H](C)CC1)NC2=O` [Compound 475, 8-{2-[2,6-Dimethyl-4-(methyl-thiazol-2-yl-amino)-phenyl]-ethanesulfonyl}-2-(4-methyl-cyclohexyl)-1,3,8-triaza-spiro[4.5]dec-1-en-4-one], for which the “cAMP production activity (%)” value amounted to 84%.

Still in this assay, the particulars now being: HKRK-B7 cells; compound at 1×10^−3 M; cAMP produced as percentage of that produced by hPTH(1-34) at 100 nM.
With `CCCCCCCCCC1=NC2(CCN(S(=O)(=O)CCc3c(C)cc(OCCC(O)CO)cc3C)CC2)C(=O)N1` (stereo not drawn) [Compound 798, 8-{2-[4-(3,4-dihydroxy-butoxy)-2,6-dimethyl-phenyl]-ethanesulfonyl}-2-nonyl-1,3,8-triaza-spiro[4.5]dec-1-en-4-one], the “cAMP production activity (%)” value came out at 101%. `O=C1NC(C2CCCCC2)=NC12CCN(S(=O)(=O)c1csc3ccccc13)CC2` [Compound 53, 8-(benzo[b]thiophene-3-sulfonyl)-2-cyclohexyl-1,3,8-triaza-spiro[4.5]dec-1-en-4-one]: the “cAMP production activity (%)” value came out at 33%. Turning to `COC(=O)c1cccc(C2=NC3(CCN(S(=O)(=O)CCc4ccc(C(=O)N(C)C)cc4C)CC3)C(=O)N2)c1` [Compound 174, 3-{8-[2-(4-Dimethylcarbamoyl-2-methyl-phenyl)-ethanesulfonyl]-4-oxo-1,3,8-triaza-spiro[4.5]dec-1-en-2-yl}-benzoic acid methyl ester], the “cAMP production activity (%)” value was 68%. With `COc1cc(C2=NC3(CCN(S(=O)(=O)CCc4ccc(C(=O)N(C)C)cc4C)CC3)C(=O)N2)ccn1` [Compound 119, 4-{2-[2-(2-methoxy-pyridin-4-yl)-4-oxo-1,3,8-triaza-spiro[4.5]dec-1-ene-8-sulfonyl]-ethyl}-3,N,N-trimethyl-benzamide], the “cAMP production activity (%)” value was 60%.

Consider `CCCCCCCCCC1=NC2(CCN(S(=O)(=O)CCc3ccc(C(=O)N4CCCC4)cc3C)CC2)C(=O)N1` [Compound 977, 8-{2-[2-Methyl-4-(pyrrolidine-1-carbonyl)-phenyl]-ethanesulfonyl}-2-nonyl-1,3,8-triaza-spiro[4.5]dec-1-en-4-one], for which the “cAMP production activity (%)” value turned out to be 80%. For `Cc1cc(C(=O)N2C[C@@H](C)N[C@@H](C)C2)cc(C)c1/C=C/S(=O)(=O)N1CCC2(CC1)N=C(c1ccc(F)c(C(F)(F)F)c1)NC2=O` [Compound 969, 8-{(E)-2-[4-((3R,5S)-3,5-dimethyl-piperazine-1-carbonyl)-2,6-dimethyl-phenyl]-ethenesulfonyl}-2-(4-fluoro-3-trifluoromethyl-phenyl)-1,3,8-triaza-spiro[4.5]dec-1-en-4-one], the “cAMP production activity (%)” value came to 45%. For `Cc1cc(N2CCOC2=O)ccc1CCS(=O)(=O)N1CCC2(CC1)N=C(C1CCC(C)CC1)NC2=O` (stereo not drawn) [Compound 865, 2-(4-methyl-cyclohexyl)-8-{2-[2-methyl-4-(2-oxo-oxazolidin-3-yl)-phenyl]-ethanesulfonyl}-1,3,8-triaza-spiro[4.5]dec-1-en-4-one], the “cAMP production activity (%)” value is recorded as 8.9%. Take `Cc1cc(C(=O)N2CCC(O)CC2)cc(C)c1CCS(=O)(=O)N1CCC2(CC1)N=C(c1ccc3c(c1)OC(F)(F)O3)NC2=O` [Compound 1333, 2-(2,2-difluoro-benzo[1,3]dioxol-5-yl)-8-{2-[4-(4-hydroxy-piperidine-1-carbonyl)-2,6-dimethyl-phenyl]-ethanesulfonyl}-1,3,8-triaza-spiro[4.5]dec-1-en-4-one]: the “cAMP production activity (%)” value is 109%. `Cc1cc(N(C)C(N)=O)cc(C)c1CCS(=O)(=O)N1CCC2(CC1)N=C(C1C[C@H]3CC[C@@H](C1)C3)NC2=O` (stereo partly drawn) [Compound 1054, 1-{4-[2-((1R,5S)-2-bicyclo[3.2.1]oct-3-yl-4-oxo-1,3,8-triaza-spiro[4.5]dec-1-ene-8-sulfonyl)-ethyl]-3,5-dimethyl-phenyl}-1-methyl-urea]: the “cAMP production activity (%)” value stood at 80%. Same read-out and setting: under `Cc1cc(N(C)C(N)=O)cc(C)c1CCS(=O)(=O)N1CCC2(CC1)N=C(C1CCC(C)CC1)N/C2=N/O` (stereo not drawn) [Compound 1371, 1-(4-{2-[4-[(E)-Hydroxyimino]-2-(4-methyl-cyclohexyl)-1,3,8-triaza-spiro[4.5]dec-1-ene-8-sulfonyl]-ethyl}-3,5-dimethyl-phenyl)-1-methyl-urea] stands 84%; under `Cc1ccc(OCCC(O)CO)cc1CCS(=O)(=O)N1CCC2(CC1)N=C(c1cccc(OC(F)(F)F)c1)NC2=O` (stereo not drawn) [Compound 267, 8-{2-[5-(3,4-dihydroxy-butoxy)-2-methyl-phenyl]-ethanesulfonyl}-2-(3-trifluoromethoxy-phenyl)-1,3,8-triaza-spiro[4.5]dec-1-en-4-one], 42%; under `O=C(c1ccc(Cl)cc1)N1CCCC(C2=NC3(CCN(S(=O)(=O)c4cccc(Cl)c4)CC3)C(=O)N2)C1` (stereo not drawn) [Compound 425, 8-(3-Chloro-benzenesulfonyl)-2-[1-(4-chloro-benzoyl)-piperidin-3-yl]-1,3,8-triaza-spiro[4.5]dec-1-en-4-one], 17%. The same measure, in the same setting: the figure for `CC(=O)Nc1ccc(CCS(=O)(=O)N2CCC3(CC2)N=C(C2CCC(=CCC(F)F)CC2)NC3=O)c(C)c1` (stereo not drawn) [Compound 1076, N-[4-(2-{2-[4-(3,3-difluoro-propylidene)-cyclohexyl]-4-oxo-1,3,8-triaza-spiro[4.5]dec-1-ene-8-sulfonyl}-ethyl)-3-methyl-phenyl]-acetamide] is 88%; for `CC(=O)N(CCO)c1ccc(-c2ccc(S(=O)(=O)N3CCC4(CC3)N=C(c3ccc(F)c(C(F)(F)F)c3)NC4=O)s2)c(C)c1` [Compound 342, N-(4-{5-[2-(4-Fluoro-3-trifluoromethyl-phenyl)-4-oxo-1,3,8-triaza-spiro[4.5]dec-1-ene-8-sulfonyl]-thiophen-2-yl}-3-methyl-phenyl)-N-(2-hydroxy-ethyl)-acetamide] it is 93%. Turning to `Cc1cc(C2=NC3(CCN(S(=O)(=O)CCc4ccc(C(=O)N(C)C)cc4C)CC3)C(=O)N2)ccc1Cl` [Compound 95, 4-{2-[2-(4-chloro-3-methyl-phenyl)-4-oxo-1,3,8-triaza-spiro[4.5]dec-1-ene-8-sulfonyl]-ethyl}-3,N,N-trimethyl-benzamide], the “cAMP production activity (%)” value was found to be 76%. Consider `Cc1cc(C(=O)N2CCCO2)cc(C)c1/C=C/S(=O)(=O)N1CCC2(CC1)N=C(C1CCC(C)CC1)NC2=O` (stereo not drawn) [Compound 1001, 8-{(E)-2-[4-(isoxazolidine-2-carbonyl)-2,6-dimethyl-phenyl]-ethenesulfonyl}-2-(4-methyl-cyclohexyl)-1,3,8-triaza-spiro[4.5]dec-1-en-4-one], for which the “cAMP production activity (%)” value turned out to be 64%. The same measure, in the same setting: the figure for `Cc1cc(N2C(=O)CC[C@@H]2CO)ccc1CCS(=O)(=O)N1CCC2(CC1)N=C(c1ccc(F)c(C(F)(F)F)c1)NC2=O` [Compound 857, 2-(4-fluoro-3-trifluoromethyl-phenyl)-8-{2-[4-((R)-2-hydroxymethyl-5-oxo-pyrrolidin-1-yl)-2-methyl-phenyl]-ethanesulfonyl}-1,3,8-triaza-spiro[4.5]dec-1-en-4-one] is 89%; for `Cc1cc(C(=O)N(C)C)ccc1CCS(=O)(=O)N1CCC2(CC1)N=C(CC1CCCCC1)NC2=O` [Compound 103, 4-[2-(2-cyclohexylmethyl-4-oxo-1,3,8-triaza-spiro[4.5]dec-1-ene-8-sulfonyl)-ethyl]-3,N,N-trimethyl-benzamide] it is 80%; for `CC(=O)Nc1ccc(CCS(=O)(=O)N2CCC3(CC2)N=C(C2CCC(/C=C/CF)CC2)NC3=O)c(C)c1` (stereo not drawn) [Compound 1063, N-[4-(2-{2-[4-((E)-3-fluoro-propenyl)-cyclohexyl]-4-oxo-1,3,8-triaza-spiro[4.5]dec-1-ene-8-sulfonyl}-ethyl)-3-methyl-phenyl]-acetamide] it is 72%. The same measure, in the same setting: under `Cc1cccc(C2=NC3(CCN(S(=O)(=O)CCc4ccc(C(=O)N(C)C)cc4C)CC3)C(=O)N2)c1` [Compound 84, 3,N,N-trimethyl-4-[2-(4-oxo-2-m-tolyl-1,3,8-triaza-spiro[4.5]dec-1-ene-8-sulfonyl)-ethyl]-benzamide] stands 51%; under `Cc1c(CCS(=O)(=O)N2CCC3(CC2)N=C(C2CCC(C)CC2)NC3=O)ccc(N(C)C(N)=O)c1C` (stereo not drawn) [Compound 679, 1-(2,3-Dimethyl-4-{2-[2-(4-methyl-cyclohexyl)-4-oxo-1,3,8-triaza-spiro[4.5]dec-1-ene-8-sulfonyl]-ethyl}-phenyl)-1-methyl-urea], 65%; under `CC(=O)Nc1ccc(CCS(=O)(=O)N2CCC3(CC2)N=C(C2CCC(C)CC2)NC3=O)c(C)c1` (stereo not drawn) [Compound 148, N-(3-methyl-4-{2-[2-(4-methyl-cyclohexyl)-4-oxo-1,3,8-triaza-spiro[4.5]dec-1-ene-8-sulfonyl]-ethyl}-phenyl)-acetamide], 79%. For `Cc1cc(C(=O)N(C)C)ccc1CCS(=O)(=O)N1CCC2(CC1)N=C(c1ccc(C(F)(F)F)cc1F)NC2=O` [Compound 139, 4-{2-[2-(2-fluoro-4-trifluoromethyl-phenyl)-4-oxo-1,3,8-triaza-spiro[4.5]dec-1-ene-8-sulfonyl]-ethyl}-3,N,N-trimethyl-benzamide], the “cAMP production activity (%)” value was determined as 64%.
